In PubChem BioAssay (NCI):
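Values below derive from 48-hour exposures of cells grown in 96-well plates, with endpoints linearly interpolated between the two concentrations bracketing the appropriate inhibition level. At the TGI there is no net growth.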

What was measured:
Assay in all cases: NCI anticancer screen, dose series, 48 h
SF-539 CNS = tested on: SF-539 CNS
NCI-H23 lung = tested on: NCI-H23 lung
CCRF-CEM leukemia = tested on: CCRF-CEM leukemia
HCT-116 colon = tested on: HCT-116 colon
SF-268 CNS = tested on: SF-268 CNS
SR leukemia = tested on: SR leukemia
UO-31 renal = tested on: UO-31 renal
UACC-62 melanoma = tested on: UACC-62 melanoma
OVCAR-3 ovarian = tested on: OVCAR-3 ovarian
UACC-257 melanoma = tested on: UACC-257 melanoma
SK-MEL-5 melanoma = tested on: SK-MEL-5 melanoma
HS 578T breast = tested on: HS 578T breast
MCF7 breast = tested on: MCF7 breast
BT-549 breast = tested on: BT-549 breast
NCI-H522 lung = tested on: NCI-H522 lung
RXF 393 renal = tested on: RXF 393 renal
OVCAR-4 ovarian = tested on: OVCAR-4 ovarian
U251 CNS = tested on: U251 CNS
SK-MEL-28 melanoma = tested on: SK-MEL-28 melanoma
HOP-92 NSCLC = tested on: HOP-92 NSCLC

Row | Structure (SMILES) | TGI (SF-539 CNS) [µM] | TGI (NCI-H23 lung) [µM] | TGI (CCRF-CEM leukemia) [µM] | TGI (HCT-116 colon) [µM] | TGI (SF-268 CNS) [µM] | TGI (SR leukemia) [µM] | TGI (UO-31 renal) [µM] | TGI (UACC-62 melanoma) [µM] | TGI (OVCAR-3 ovarian) [µM] | TGI (UACC-257 melanoma) [µM] | TGI (SK-MEL-5 melanoma) [µM] | TGI (HS 578T breast) [µM] | TGI (MCF7 breast) [µM] | TGI (BT-549 breast) [µM] | TGI (NCI-H522 lung) [µM] | TGI (RXF 393 renal) [µM] | TGI (OVCAR-4 ovarian) [µM] | TGI (U251 CNS) [µM] | TGI (SK-MEL-28 melanoma) [µM] | TGI (HOP-92 NSCLC) [µM]
1 | Cc1ccc(N=N/C(=N/NC(=O)c2cc(Cl)ccc2O)c2ccc(N(CCC#N)CCC#N)cc2C)cc1 | 46.4 | 55.9 | > 100 | 54.4 | > 100 | > 100 | 64.9 | 59.7 | 55.9 | 47.2 | 36.4 | 46.4 | > 100 | 88.7 | 31.4 | > 100 | 97.7 | > 100 | – | –
2 | CCCN(CCC)CCc1ccc(OC2=CCN(C)CC2)cc1 | – | > 100 | > 100 | > 100 | > 100 | 81.7 | 88.3 | > 100 | > 100 | 43.9 | > 100 | > 100 | > 100 | > 100 | 67 | > 100 | > 100 | > 100 | 91.7 | –
3 | O=C1OCN(c2ccccc2)C12CCN(Cc1ccccc1)CC2 | 39.7 | > 100 | 48.7 | > 100 | > 100 | > 100 | > 100 | 37.2 | – | 31 | 33.6 | 55.4 | > 100 | > 100 | – | 33.2 | > 100 | 31.5 | 34 | > 100
4 | O=C1C=Cc2c(Br)sc(Br)c21 | > 100 | > 100 | 11.3 | 77.1 | > 100 | 75.2 | 39.2 | 76.4 | 32.3 | > 100 | > 100 | > 100 | > 100 | > 100 | 68.2 | 46 | – | 38.2 | 84.9 | 60
5 | O=C(NC(=S)Nc1ccc(Br)cc1)c1ccc2c(c1)Sc1ccccc1S2 | 53.5 | 45.4 | 54.1 | 51 | 46.4 | 35.5 | 26.6 | 74.8 | 41.2 | 54.5 | > 100 | 59.7 | > 100 | 60.6 | 52.6 | – | 33.5 | 35 | > 100 | 32.5
6 | COc1cc(NC(C)c2ccc3c(c2)OCCO3)cc(OC)c1OC (centres undefined) | 60.4 | 64.7 | – | > 100 | > 100 | > 100 | > 100 | > 100 | > 100 | > 100 | 76.3 | 52.1 | > 100 | > 100 | 48.9 | > 100 | > 100 | 94.1 | > 100 | > 100
7 | Cc1cccc2oc3c(CC(=O)O)cccc3c(=O)c12 | > 100 | > 100 | > 100 | > 100 | > 100 | > 100 | > 100 | – | > 100 | > 100 | > 100 | > 100 | > 100 | > 100 | > 100 | – | > 100 | > 100 | > 100 | > 100
8 | N#CC(C#N)=C1C(=Cc2ccc(OCCCCCCCCCCSSCCCCCCCCCCOc3ccc(C=C4C(=C(C#N)C#N)c5ccccc5C4=C(C#N)C#N)cc3)cc2)C(=C(C#N)C#N)c2ccccc21 | 47 | 32.6 | – | 30.8 | 55.1 | 68 | 40.2 | – | 89 | > 100 | 52.3 | 52.4 | 48 | 38.9 | 34.7 | 67.2 | 52.9 | 46.8 | 52.4 | 34.9
9 | COc1cccc(-c2nc3ccccc3c(=O)[nH]2)c1 | 50.3 | > 100 | – | 60.1 | 44.8 | > 100 | 45.2 | 44 | 42.7 | 56.2 | 65.8 | 47.9 | 43.1 | 61.8 | 60.8 | 56.6 | – | 44.7 | 96.6 | > 100
10 | CCCCS(=O)(=O)CCC(N)P(=O)(O)O (centres undefined) | – | > 100 | > 100 | > 100 | > 100 | > 100 | > 100 | > 100 | > 100 | > 100 | > 100 | > 100 | > 100 | > 100 | > 100 | – | > 100 | > 100 | > 100 | > 100
11 | Cc1ccc(Cc2n[nH]c(=O)[nH]2)cc1 | > 100 | > 100 | > 100 | > 100 | – | > 100 | > 100 | > 100 | > 100 | > 100 | > 100 | > 100 | > 100 | > 100 | – | – | > 100 | > 100 | > 100 | > 100
12 | COc1ccc(N2CN3OC(=O)N(c4ccc(OC)cc4)[C@@]3(c3ccccc3)C2)cc1 | > 100 | > 100 | – | > 100 | > 100 | 66.2 | > 100 | > 100 | 48.9 | > 100 | 76.9 | > 100 | > 100 | > 100 | > 100 | 74.6 | > 100 | > 100 | > 100 | > 100
13 | S=C(N1CCN(c2ccc(Cl)c(Cl)c2)CC1)N1CCN(c2ccc(Cl)c(Cl)c2)CC1 | – | 29.7 | 9.44 | 19.4 | 32.4 | 5.82 | 25.8 | 28.8 | 26.3 | 30.9 | 28.4 | 26 | 24 | 30.4 | 22.8 | 35.1 | 28.3 | 28 | 28.7 | –
14 | COC(=O)NC(Nc1ccccn1)(C(F)(F)F)C(F)(F)F | > 100 | > 100 | > 100 | > 100 | > 100 | > 100 | > 100 | > 100 | > 100 | > 100 | > 100 | > 100 | > 100 | > 100 | > 100 | > 100 | – | > 100 | > 100 | > 100
15 | CO[C@]1(c2ccc([N+](=O)[O-])cc2)Oc2ccccc2C(=O)[C@@]1(Nc1ccc(C=O)cc1)OC | > 10 | > 10 | > 10 | > 10 | > 10 | > 10 | > 10 | > 10 | > 10 | > 10 | > 10 | > 10 | > 10 | > 10 | – | > 10 | > 10 | > 10 | > 10 | –
16 | O=C1N(C2CCCCC2)C(=O)N1C1CCCCC1 | 45.1 | 23.8 | 2.07 | 14.1 | 40.2 | 8.83 | 0.199 | 1.9 | > 100 | 19.4 | 4.88 | 2.93 | 48.6 | 5.29 | 3.66 | – | 31.7 | 18.7 | 20.7 | 19.5
17 | CC1OC(OC2C(OC(=O)[C@]34CCC(C)(C)C[C@H]3C3=CC[C@@H]5[C@@]6(C)CC[C@H](OC7OC(C(=O)O)C(O)C(O)C7O)C(C)(C)[C@@H]6CC[C@@]5(C)[C@]3(C)C[C@H]4O)OCC(O)C2O)C(O)C(O)C1OC1OCC(OC2OCC(O)C(O)C2O)C(O)C1O (some centres undefined) | – | 4.87 | – | 16.6 | 26.3 | 53.9 | 4.84 | 23.7 | 30 | 23 | 27.2 | 37.9 | 17.6 | 13 | 16.5 | 29 | 9.31 | 21.2 | 11.7 | 19.5
18 | C[N+](C)(CCCn1ccnc1[N+](=O)[O-])CCCn1ccnc1[N+](=O)[O-] | > 100 | > 100 | > 100 | > 100 | > 100 | > 100 | > 100 | > 100 | > 100 | > 100 | > 100 | > 100 | > 100 | > 100 | > 100 | > 100 | > 100 | > 100 | > 100 | –
19 | NC(=O)C(=CNC(N)=S)C(N)=O | > 100 | > 100 | > 100 | > 100 | > 100 | > 100 | > 100 | > 100 | > 100 | > 100 | > 100 | > 100 | > 100 | > 100 | > 100 | > 100 | > 100 | > 100 | > 100 | –
